# Source: patent publication US11867698B2, “Fluorogenic pH sensitive dyes and their method of use” (Life Technologies Corporation, priority 2006, dated 2024)
# What was measured:
# [1] = Fluorimetric pH titration of the sensor molecules in aqueous buffers; format: physicochemical; conditions: for λem / λex / pK / pKa: aqueous buffers; for λem / λex / pK: around 10 μmol/L; for S = F/F0: fluorescent response to the pH changes; for pK: fluorimetric pH titration
# Method: Example 201. Fluorimetric pH titration. The study of the fluorescent response of the sensor molecules to changes in pH was performed in solution in aqueous buffers (in concentrations around 10 μmol/L).
# The resulting curve has a pronounced maximum at pH 7.2 (FIG. 2).
# [2] = pH titration of labeled E. coli bioparticles; format: physicochemical; conditions: dye labeled E. coli bioparticles 0.2 mg/mL, 50 mM potassium phosphate buffer, pH 1 to 10, FIG. 4
# Method: Example 303: Labeling E. Coli bioparticles for use in assays of phagocytosis. Escherichia coli Strain K12, lyophilized cells (Sigma, EC1-5G) were resuspended in PBS at 20 mg/mL and vortexed vigorously and sonicated for several minutes. The suspensions were divided into 100 uL aliquots spun down at 10,000×g for 2 minutes, supernatants removed and resuspended in 100 uL of PBS. This was done twice to clean up the E. coli. The amine reactive SE versions of the novel pH dyes were made up in DMSO at concentration of 10 mM. For labeling, 100 uL of the E. coli suspension was combined with 100 uL of the dye stock solution, so 2 mg of E. coli was labeled with 1 umole of dye. The labeling was carried out at 37 C for 45 minutes followed by the same spin down and resuspension procedure as described above 5 times to remove free dye. The final resuspension was 10 mg/mL. pH Titration of labeled E. Coli. The fluorescence of the labeled E. coli was measured at a range of pH values in 50 mM potassium phosphate buffer, from pH 1 to 10, using a Flexstation II (Molecular Devices) plate reader. The conjugates were diluted 1:50 into the potassium phosphate buffers, so the final concentration of the labeled bioparticles was 0.2 mg/mL.
# [3] = Quantum yield determination relative to pH-insensitive standard 180; format: physicochemical
# Method: Example 202. Quantum yield determination. Quantum yields at pH=2.0 and pH=10.0 were determined for the compounds 178 and 179 relative to the pH-insensitive standard 180 by comparing integrated absorption and emission spectral curves.
# Compounds 178 and 179 were prepared by treatment of the corresponding succinimidyl esters 111 and 129 with methoxyethylamine. The reference standard 180 was obtained in the reaction of commercial succinimidyl 5-carboxy-tetramethylpdodamine (TAMRA-5-SE) with the same amine.
# [4] = Fluorescent pH response of transferrin conjugates labeled with pH sensing dyes; format: physicochemical; conditions: transferrin conjugate of the labeling sensor
# Method: Labeling of transferrin with pH sensing dyes. All materials are from Invitrogen unless otherwise stated. Dissolve transferrin from human serum (Sigma, T4132) in 0.1 M NaHCO3, pH 8.3, to a concentration of 10 mg/mL. Make a 10 mg/mL solution of the succinimidyl ester of the dye in dry DMSO and sonicate briefly to aid in dissolution of the dye. Add a 10 to 30-fold molar excess of the reactive dye solution to the transferrin solution dropwise while stirring. Note that the volume of dye added depends on the specific dye and the amount of transferrin to be labeled. Protect the reaction vessel from light and stir for ˜1 hour at RT. Purify the conjugate on a P-30M gel filtration column (BioRad, 150-4150) in PBS, pH 7.2. Centrifuge the conjugate at 19,000 rpm for 20 minutes to remove aggregates, if present. Determine the degree of labeling by measuring A560 nm/A280 nm.
# HeLa cells = experiment: Staining of endocytic recycling compartment using transferrin conjugated with pH sensing dye; format: cell-based; conditions: transferrin conjugate 20 ug/mL, 45 minutes, 37 C, FIG. 3
# Method: Staining of endocytic recycling compartment using transferrin conjugated with pH sensing dye (compound 129). HeLa (ATCC) cells were plated in a 96 well microplate at 10,000 cells per well in McCoy 5A media with 5% FBS and 4 uM deferoxamine (Sigma). Cells were grown overnight and then rinsed 2 times in DMEM with-out phenol red plus 0.5% FBS. Transferrin conjugates were applied in same media at 20 ug/mL for 45 minutes at 37 C. Cells were then rinsed 1 time with DMEM and imaged on a Zeiss 200M inverted fluorescence microscope using a 40× objective, TRITC filters, a CoolSnap HQ (Photometrics) ccd camera, and Metamorph (Universal Imaging Corp.) acquisition software.
# [5] = tested on: white blood cells (granualcytes); experiment: Assay of phagocytic activity in whole blood using bioparticles labeled with pH sensing dyes; format: cell-based
# Method: Assay of phagocytic activity using bioparticles labeled with pH sensing dyes. A whole blood sample was collected in a sodium heparin tube. Aliquots of whole blood (100 uL) were combined with labeled E. coli (20 uL of 10 mg/mL) in 12×75 mm flow cytometry Falcon tube, and the samples were incubated in a 37° C. water bath for 15 minutes. A negative control was put on ice. After incubation, the tubes were placed in a rack and the red blood cells were lysed with 1 mL of an ammonium chloride lysis solution (0.187 M NH4Cl, 10 mM KHCO3, 0.095 mM EDTA) for 10 minutes at room temperature. The samples were centrifuged at 1200 rcf for 5 minutes, the supernatants were removed, and the cell pellets were resuspended in HBSS buffer. The resuspended cells were put into a 96 well microplate, 100 uL per well, and the plate was spun to settle the cells to the bottom of the wells. Imaging was done on a Zeiss 200M inverted fluorescence microscope using a 40× objective, TRITC filters, a CoolSnap HQ (Photometrics) ccd camera, and Metamorph (Universal Imaging Corp.) acquisition software. […] This would give an overestimation of phagocytic activity in a plate reader experiment, unless other steps were taken such as including a quencher dye.
# neurons = experiment: Detection of neuronal cells in mixed neuron/astroglial culture; format: cell-based, rat
# Method: Astroglial feeder layers were established for one week in culture on glass bottomed culture dishes, 35 mm diameter, coated with Poly-L-Lysine. Neurons from embryonic day 18 rat hippocampi were dissociated in culture medium, and seeded onto the feeder layers at a density of 25-35,000 cells per milliliter, two milliliters per dish, and allowed to grow in neuronal culture medium plus mitotic inhibitors to prevent glial proliferation.
# Cells were pre-stained for 15 minutes with 200 ng/mL Hoercsht to visualize DNA in the nuclei, and 50 ng/mL calcien AM ester to visualize cytoplasm by adding 1000×DMSO stocks of these compounds to the cells in complete medium, then returning them to the cell culture incubator for fifteen minutes at 37 degrees Celsius. Cells were removed, and the medium gently poured off. The cells were immediately placed in 5 uM Compound 129, diluted from a 1 mM DMSO stock into normal saline plus 20 mM HEPES and 20 mM glucose, final pH set to 7.4 with NaOH. The cells were incubated in labeling solution for ten minutes at room temperature, and then gently washed twice with saline (above) minus dye for imaging.
# [6] = Fluorescence response of ratiometric dextran conjugates versus pH; format: physicochemical; conditions: 50 mM phosphate buffers
Compound,λem [1],λex [1],S = F/F0 [1],pK [1],also measured
"CCN(CCCC(=O)ON1C(=O)CCC1=O)c1cc(O)c(-c2c3ccc(=[N+](C)C)cc-3oc3cc(N(C)C)ccc23)cc1OC.[Cl-] [Compound 189, N-(6-(dimethylamino)-9-(4-((4-(2,5-dioxopyrrolidin-1-yloxy)-4-oxobutyl)(ethyl)amino)-2-hydroxy-5-methoxyphenyl)-3H-xanthen-3-ylidene)-N-methylmethanaminium chloride]",–,–,–,–,fluorescence intensity versus pH [2]: large increase in fluorescence at acidic pHs
CCN(CCCC(=O)NCCOC)c1cc(OC)c(-c2c3ccc(=[N+](C)C)cc-3oc3cc(N(C)C)ccc23)cc1OC [Compound 178],–,–,–,–,"pKa ([3]; aqueous buffers, Table 4): 4.6; QE (pH = 2.0) ([3]; relative quantum yield, pH = 2.0, relative to standard 180): 0.78; QE (pH = 10.0) ([3]; relative quantum yield, pH = 10.0, relative to standard 180): 0.008"
"CCN(CCCC(=O)ON1C(=O)CCC1=O)c1cc(OC)c(-c2c3ccc(N(C)C)cc3[o+]c3cc(N(C)C)ccc23)cc1N(C)C [Compound 129, Succinimidyl 4-((2-Dimethylamino)-5-methoxyphenyl-4-tetramethylrhodaminyl)(ethyl)amino) butanoate]",–,–,–,–,"pKa [4]: 4.2; staining pattern (HeLa cells): characteristic perinuclear staining pattern of the endocytic recycling compartment; fluorescence intensity versus pH [2]: large increase in fluorescence at acidic pHs; fluorescence of cells by flow cytometry ([5]; E. coli labeled with the dye, relative to unlabeled E. coli and iced negative control, FIG. 5): increase in fluorescence; staining seen by fluorescence microscopy ([5]; labeled E. coli, whole blood, 37° C., 15 minutes, FIG. 6): bright vesicular staining of the phagosomes filled with the engulfed E. coli within the cells; uptake by glial cells shown by acidification of the preparation (neurons): had in fact taken up; labeling of neurons relative to astrocytes (neurons; 5 uM, ten minutes, room temperature, pH 7.4, TRITC channel): appear bright over the dimly labeled astrocytes; fluorescence in the red channel versus pH ([6]; 10,000 MW dextran conjugate with rhodamine green, 0.1 mg/mL, ex 540, em 600, FIG. 10A): fluorescence does change with pH; fluorescence in the red channel versus pH ([6]; dextran conjugate with rhodamine green at a higher degree of label than Compound 129, 0.1 mg/mL, ex 540, em 600, FIG. 9A): fluorescence does change with pH"
"CCN(CCCC(=O)OC)c1cc(OC)c(-c2c3ccc(N(C)C)cc3[o+]c3cc(N(C)C)ccc23)cc1N(C)C [Compound 127, Methyl 4-((2-dimethylamino)-5-methoxyphenyl-4-tetramethylrhodaminyl)(ethyl)amino) butanoate]",587 nm,561 nm,130,7.3,fluorescence upon protonation (titration curve) ([1]; FIG. 1): significant increase in fluorescence upon protonation
Ethyl 4-((2-dimethylamino)-5-methoxyphenyl-4-tetramethylrhodaminyl)(ethyl)amino) butanoate [Compound 133],587 nm,561 nm,180,7.3,–
CCN(CCCC(=O)NCCCCCC(=O)ON1C(=O)CCC1=O)c1cc(OC)c(-c2c3ccc(=[N+](C)C)cc-3oc3cc(N(C)C)ccc23)cc1N(C)C [Compound 139],588 nm,556 nm,80,5.6,S = F/F0 [4]: 15

# Now from value to compound, other results behind:
λem [1],λex [1],S = F/F0 [1],pK [1],Compound,also measured
576 nm,550 nm,10,7.7,CN(C)C=Nc1ccc(-c2c3ccc(=[N+](C)C)cc-3oc3cc(N(C)C)ccc23)c(C(=O)O)c1 [Compound 175],–
517 nm,490 nm,200,7.2,CN(C)C=Nc1ccc(-c2c3ccc(=O)cc-3oc3cc(O)ccc23)c(C(=O)O)c1 [Compound 173],"pH of the maximum of the titration curve ([1]; FIG. 2): 7.2; pKa ([1]; FIG. 2, read-out: pKa, drop in fluorescence (amidine titration curve)): ~8; pKa ([1]; pKa, increase in fluorescence (fluorescein titration curve), FIG. 2): ~5.5"
611 nm,587 nm,88,7.2,CCOC(=O)CCCN(CC)c1cc(OC)c(C2=c3cc4c5c(c3Oc3c2cc2c6c3CCCN6CCC2)CCC[N+]=5CCC4)cc1N(C)C [Compound 162],–
588 nm,560 nm,65,7.4,CCN(CCCC(=O)NCCCCCN)c1cc(OC)c(-c2c3ccc(=[N+](C)C)cc-3oc3cc(N(C)C)ccc23)cc1N(C)C [Compound 141],–
611 nm,586 nm,53,5.0,CCOC(=O)CCCN(CC)c1cc(OC)c(C2=c3cc4c5c(c3Oc3c2cc2c6c3CCCN6CCC2)CCC[N+]=5CCC4)cc1OC [Compound 155],–
393 nm,325 nm,–,–,CCN(CC)c1cc2occ(-c3ncc(C(=O)O)o3)c2cc1OC [Compound 152],–
424 nm,349 nm,270,5.4,CCOC(=O)CCCN(CC)c1cc(OC)c(-c2cc3ccc(C(=O)OC)cc3[nH]2)cc1OC [Compound 157],–
